# In patent publication US7288567B2, “Inhibitors of histone deacetylase” (Methylgene Inc., priority 2000, dated 2007):
# Target: T1, recombinant human HDAC-1 enzyme (rHDAC-1) (Homo sapiens, UniProt Q13547)
# T1 construct: made in house; host or cells: Baculovirus insect cell expression system
# Assay: Histone deacetylase inhibition, recombinant human HDAC-1
# Assay type: biochemical
# Conditions: cloned recombinant human HDAC-1, Baculovirus insect cell expression; read-out: rHDAC-1 IC50
# Description: The reaction was stopped by adding acetic acid (0.04 M, final concentration) and HCl (250 mM, final concentration). The mixture was extracted with ethyl acetate and the released [^3H]-acetic acid was quantified by scintillation counting. For inhibition studies, the enzyme was preincubated with compounds at 4° C. for 30 minutes prior to initiation of the enzymatic assay. IC50 values for HDAC enzyme inhibitors were determined by performing dose response curves with individual compounds and determining the concentration of inhibitor producing fifty percent of the maximal inhibition.
# T1 sequence (Q13547 whole entry): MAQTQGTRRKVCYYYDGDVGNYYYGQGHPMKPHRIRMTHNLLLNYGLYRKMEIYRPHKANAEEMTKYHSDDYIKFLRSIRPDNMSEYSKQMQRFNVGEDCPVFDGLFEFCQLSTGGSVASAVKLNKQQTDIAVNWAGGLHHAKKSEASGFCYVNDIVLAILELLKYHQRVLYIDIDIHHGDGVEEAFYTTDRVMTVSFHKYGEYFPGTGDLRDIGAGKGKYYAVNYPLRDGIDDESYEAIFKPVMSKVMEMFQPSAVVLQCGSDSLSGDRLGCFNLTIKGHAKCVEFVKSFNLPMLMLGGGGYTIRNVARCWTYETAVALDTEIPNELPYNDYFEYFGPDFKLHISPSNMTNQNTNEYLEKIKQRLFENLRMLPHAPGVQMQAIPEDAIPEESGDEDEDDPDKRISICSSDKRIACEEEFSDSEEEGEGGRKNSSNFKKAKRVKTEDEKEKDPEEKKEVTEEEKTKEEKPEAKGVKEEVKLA
row,Structure (SMILES),IC50 [µM]
1,"O=C(CCCCSCC(=O)c1ccc(-c2ccccc2)cc1)NO [Compound 226b, N-Hydroxy-5-(4-biphenylcarbonylmethanesulfanyl)pentanamide]",0.006
2,"Nc1ccccc1NC(=O)CCCCCN1C(=O)c2ccc(O)cc2C1=O [Compound 243g, N-(2-Aminophenyl)-6-(5-hydroxy-N-phthaloyl)hexanamide]",3
3,"Nc1ccccc1NC(=O)CCCCCN1Cc2ccccc2C1=O [Compound 248, N-(2-Aminophenyl)-6-[2-(1-oxo-1,3-dihydro-isoindolyl)]hexanamide]",4
4,Nc1ccccc1NC(=O)CCCCCN1C(=O)c2ccncc2C1=O [Compound 246b],14
5,"O=C(CCCCCCC(=O)c1ccc(-c2ccccc2)cc1)Nc1n[nH]c(=S)s1 [Compound 79, N-(4,5-Dihydro-5-thioxo-1,3,4-thiadiazol-2-yl)-7-[(4-biphenyl)carbonyl]-heptanamide]",9
6,"CC(C)(C)OC(=O)N1CCN(c2ccc(C(=O)CCCCCCC(=O)NO)cc2)CC1 [Compound 138c1, N-Hydroxy-7-[4-(1-(4-tert-butyloxycarbonylpiperazinyl))benzoyl]heptanamide]",0.03
7,"Nc1ccccc1NC(=O)CCCCCCC(=O)c1ccc(-c2ccc(CN3CCOCC3)cc2)cc1 [Compound 157, N-(2-Aminophenyl)-7-[4-(4-(N-methylmorpholinyl)phenyl)benzoyl]heptanamide]",4
8,"Nc1ccccc1NC(=O)CCCCCN1C(=O)c2ccc([N+](=O)[O-])cc2C1=O [Compound 243e, N-(2-Aminophenyl)-6-(5-nitro-N-phthaloyl)hexanamide]",12
9,"Nc1ccccc1NC(=O)CCCCCCN1C(=O)c2ccccc2C1=O [Compound 243c, N-(2-Aminophenyl)-7-(N-phthaloyl)heptanamide]",4
10,"CN(CCCCC(=O)NO)Cc1ccc2ccccc2c1 [Compound 213, N-Hydroxy-5-N-(2-naphthylmethyl-methylamino)pentanamide]",3
11,"O=C(CCCCSCC(=O)c1ccc2ccccc2c1)NO [Compound 226a, N-Hydroxy-5-(2-naphthoylmethylsulfanyl)pentanamide]",0.007
12,"CN(CCCCCC(=O)NO)Cc1ccc2ccccc2c1 [Compound 209, N-Hydroxy-N-(2-naphthylmethyl-methylamino)hexanamide]",0.05
13,"CN(CCCCCC(=O)Nc1ccccc1N)Cc1ccc2ccccc2c1 [Compound 210, N-(2-Aminophenyl)-N-(2-naphthylmethyl-methylamino)hexanamide]",10
14,Nc1ccccc1NC(=O)CCCCCN1C(=O)c2cccnc2C1=O [Compound 246a],5
15,"Nc1ccccc1NC(=O)CCCCCN1C(=O)c2cc(Cl)c(Cl)cc2C1=O [Compound 243f, N-(2-Aminophenyl)-6-(5,6-dichloro-N-phthaloyl)hexanamide]",3
16,"O=C(CCCCCC(=O)c1ccc(-c2ccccc2)cc1)Nc1n[nH]c(=S)s1 [Compound 128, N-(4,5-Dihydro-5-thioxo-1,3,4-thiadiazol-2-yl)-6-[(4-biphenyl)carbonyl]hexanamide]",19
17,"Nc1ccccc1NC(=O)CCCCS(=O)(=O)CC(=O)c1ccc2ccccc2c1 [Compound 230a, N-(2-Aminophenyl)-5-(2-naphthoylmethylsulfonyl)pentanamide]",5
18,"Nc1ccccc1NC(=O)CCCCCN1C(=O)c2cc(O)c(CN3CCCCC3)cc2C1=O [Compound 243h, N-(2-Aminophenyl)-6-(5-hydroxy-6-(1-methylpiperidinyl)-N-phthaloyl)-hexanamide]",3
19,"CN(CCCCC(=O)NO)CCc1ccc2ccccc2c1 [Compound 216, N-Hydroxy-5-N-[2-(2-naphthylethyl)-methylamino]pentanamide]",0.3
20,"Nc1ccccc1NC(=O)CCCCCN1C(=O)c2cccc3c(Br)ccc(c23)C1=O [Compound 251b, N-(2-Aminophenyl)-6-[2-(6-bromo-1,3-dioxo-1H,3H-benzo[de]isoquinolinyl)]-hexanamide]",1
21,"O=C(CCCCCCC(=O)c1ccc(NCc2cccnc2)cc1)NO [Compound 138f, N-Hydroxy-7-[4(N-3-aminomethylpyridyl)benzoyl]heptanamide]",0.02
22,"O=C(CCCCS(=O)(=O)CC(=O)c1ccc2ccccc2c1)NO [Compound 229a, N-Hydroxy-5-(2-naphthoylmethylsulfonyl)pentanamide]",1
23,"O=C(CCCCCCC(=O)c1cc2ccccc2[nH]1)NO [Compound 100, N-Hydroxy-7-[2-(indolyl)carbonyl]heptanamide]",4
24,O=C(CCCCCCC(=O)c1ccc(N2CCNCC2)cc1)NO [Compound 138c2],0.03

# More lines, now with the values ahead:
row,IC50 [µM],Structure (SMILES)
1,5,"O=C(CCCCCCC(=O)c1ccccc1)Nc1ccccc1O [Compound 86, N-(2-Hydroxyphenyl)-7-(benzoyl)heptanamide]"
2,2,"CON=C(CCCCCCC(=O)Nc1ccccc1N)c1cccc(-c2ccccc2)c1 (mixture of isomers) [Compound 135, N-(2-Aminophenyl)-8-(E)-O-methyl-oximino-8-(3-biphenyl)octanamide]"
3,24,"C/C(=C/C(=O)Nc1ccccc1N)CCCCC(=O)c1ccc2ccccc2c1 [Compound 194, (Z)-N-(2-Aminophenyl)-3-methyl-7-(2-naphthoyl)-2-heptenamide]"
4,3,"Nc1ccccc1NC(=O)CCCCSCC(=O)c1ccc(-c2ccccc2)cc1 [Compound 227b, N-(2-Aminophenyl)-5-(4-biphenylcarbonylmethanesulfanyl)pentanamide]"
5,1,"Nc1ccccc1NC(=O)CCCCCC(=O)c1ccc(-c2ccccc2)cc1 [Compound 129, N-(2-Aminophenyl)-6-[(biphenyl)carbonyl]hexanamide]"
6,1,"Nc1ccccc1NC(=O)CCCCCCC(O)c1cccc(-c2ccccc2)c1 (stereo not shown) [Compound 133, N-(2-Aminophenyl)-8-(3-biphenyl)-8-hydroxy-octanamide]"
7,12,"Nc1ccccc1NC(=O)CCCCS(=O)(=O)CC(=O)c1ccc(-c2ccccc2)cc1 [Compound 230b, N-(2-Aminophenyl)-5-(4-biphenylcarbonylmethylsulfonyl)pentanamide]"
8,1,"Nc1ccccc1NC(=O)CCCCCCOc1ccc(-c2ccccc2)cc1 [Compound 234, N-(2-Aminophenyl)-7-(4-biphenyloxy)heptanamide]"
9,16,"CC(CCCCC(=O)c1ccc2ccccc2c1)CC(=O)Nc1ccccc1N (stereo not shown) [Compound 198, (Z)-N-(2-Aminophenyl)-3-methyl-7-(2-naphthoyl)heptanamide]"
10,0.008,"O=C(CCCCCCC(=O)c1cccc(-c2ccccc2)c1)NO [Compound 131, N-Hydroxy-7-[(3-biphenyl)carbonyl]heptanamide]"
11,0.8,"Nc1ccccc1NC(=O)CCCCCCC(=O)c1cccc(-c2ccccc2)c1 [Compound 132, N-(2-Aminophenyl)-7-[(3-biphenyl)carbonyl]heptanamide]"
12,3,"Nc1ccccc1NC(=O)CCCCCCCC(=O)c1ccc(-c2ccccc2)cc1 [Compound 130, N-(2-Aminophenyl)-8[(4-biphenyl)carbonyl]octanamide]"
13,25,"COc1ccc(N)c(NC(=O)CCCCCCC(=O)c2ccc(-c3ccccc3)cc2)c1 [Compound 83, N-(3-(4-Amino)anisole)-7-[(4-biphenyl)carbonyl]heptanamide]"
